Assay results taken from ChEMBL document CHEMBL3507680, “University of Dundee, Gates Library screen for HepG2 cell viability”.

Test: Human HepG2 cell viability assay in 384 well format
Assay type: toxicity, cell-based
Design: dose 125 nL, time 70.5 hour; cytotoxicity at 70.5 h: concentration not given beside the values
Conditions: HepG2 cells, read-out: Inhibition

| Compound | cytotoxicity at 70.5 h |
| --- | --- |
| NCc1cnn(-c2ccccc2C(=O)NCCc2ccncc2)c1 | -7.18% |
| Cc1noc(C)c1-c1cncc(C2CCCN2Cc2c[nH]cn2)n1 (centres undefined) | -6.81% |
| Cc1noc(C)c1-c1cncc(C2CCCN2Cc2ncc[nH]2)n1 (centres undefined) | 16.2% |
| NCCn1nc(C2CCN(C(=O)Cc3ccccc3)C2)c2nccnc21 (centres undefined) | -5.36% |
| CCCn1ncc(CN2C[C@@H]3CCCN3C[C@H]2CCSC)c1C | -1.67% |
| COCC(=O)N1CCC(c2cncc(-c3cccc(F)c3)n2)CC1 | -7.23% |
| CC(=O)N1CCCN(c2cc(C3CN(C)CCO3)nc(C)n2)CC1 (centres undefined) | 12% |
| OCCN1CCCC(c2nccnc2Oc2ccc(F)cc2)C1 (centres undefined) | -2.84% |
| Cc1nc(Nc2cnccn2)cc(C2CCCN2C2CCOCC2)n1 (centres undefined) | -5.63% |
| Cc1c(C(=O)N2CC(Cc3nccc4ccn(C)c34)C2)cnn1C | -6.29% |
| Cc1nc(C2CCCN2C(=O)CC2CCCC2)ncc1C(N)=O (centres undefined) | -4.71% |
| Cc1c[nH]nc1C1CCN(S(=O)(=O)N(C)C)C1 (centres undefined) | -8.85% |
| CCCn1ccnc1CN1CCN(C2CCOCC2)CC(C(N)=O)C1 (centres undefined) | -10.4% |
| CNc1cc(C)nc(C2CN(Cc3ccc(Cl)cn3)CCO2)c1 (centres undefined) | -5.55% |
| COC(=O)c1cc(NC(=O)CCc2cscn2)ccc1C | -5.71% |
| Cc1ccc(NC(=O)N2CCOC(C)(c3cnn(C)c3)C2)c(C)c1 (centres undefined) | -3.64% |
| Cn1cc(C2(C)CN(C(=O)Nc3ccccc3F)CCO2)cn1 (centres undefined) | -5.13% |
| Cc1nc(CNC2(C(=O)OC(C)(C)C)CCCC2)oc1C | -8.39% |
| O=C(c1cnc(-c2ccccc2)s1)N1CCOC2(CCCC2)C1 | -3.97% |
| N#Cc1ccc(F)c(CN2CCCC2Cn2cncn2)c1 (centres undefined) | -5.36% |
| CC(=O)N1CCN(CCCSCc2ccccc2)CC1 | 6.76% |
| CS(=O)(=O)N1CCCN(CCCSCc2ccccc2)CC1 | -8.27% |
| CN(Cc1cc(F)cc2cccnc12)CC1CCN(CCO)CC1 | -8.39% |
| CC(C)OCCCNC(=O)CN1CCN(c2nccs2)C(C)C1 (centres undefined) | 35.5% |

| Compound | cytotoxicity at 70.5 h |
| --- | --- |
| CCc1nc2n(n1)CC(NCC1=Cc3ccc(OC)cc3OC1)CC2 (centres undefined) | 2.24% |
| Cc1nnc(CN(C)CC(=O)NCCc2ccc(F)cc2)n1C | -5.46% |
| CCN(CC)CCCNC(=O)Nc1c(C)cccc1C(C)C | -4.07% |
| CN(Cc1noc(C2CC2)n1)C1CCN(CCn2cccn2)C1 (centres undefined) | -5.95% |
| CCC1(CC)CC(=O)N(CC(O)c2cccc(Br)c2)C1=O (centres undefined) | 28.9% |
| Cc1cc(CN(C)C(=O)Nc2ccccc2C)no1 | -4.53% |
| OC(CNCc1nnc2ccccn12)c1ccc2c(c1)OCCCO2 (centres undefined) | -8.23% |
| CC(CN1CCOC1=O)NC(=O)c1cccc(Cl)c1Cl (centres undefined) | -4.07% |
| CCC1(CC)CC(=O)N(CC(O)c2ccc(F)cc2)C1=O (centres undefined) | -9.84% |
| Cc1ccc(C(CNC(=O)c2cc(=O)c3ccccc3[nH]2)N(C)C)cc1 (centres undefined) | -4.48% |
| CC(CN1CCOC1=O)NC(=O)c1cccc(C#N)c1 (centres undefined) | -3.83% |
| COCC(C)NC(=O)N1CCN(S(C)(=O)=O)CC1 (centres undefined) | -2.46% |
| CCC1(CC)CC(=O)N(CC(O)c2cccc(F)c2)C1=O (centres undefined) | -3.42% |
| O=S(=O)(c1ccccc1N1CC(n2cccn2)C1)C(F)(F)F | 1.67% |
| CC(C)c1nnc2n1CCN(Cc1cc(Cl)c3c(c1)OCCO3)C2 | -4.04% |
| CCCOc1ccc2c(c1)OCC(CNC1CCc3ncnn3C1)=C2 (centres undefined) | -6.97% |
| O=C(Nc1cccc(N2CCOCC2)c1)N[C@H](CO)c1ccccc1 | -1.11% |
| CC(CN1CCOCC1)NC(=O)N1CCCC1 (centres undefined) | -3.6% |
| Cc1ccc(CNC(=O)c2ccc(=O)n(C)n2)c(OC2CCCC2)c1 | -5.94% |
| Cn1nnnc1SCC1(O)CCCCC1 | -5.84% |
| CN(Cc1cc(Br)cs1)Cc1nnsc1Cl | -8.26% |
| CN1CCCN(c2ccc(F)cc2CNC(=O)c2cccnc2)CC1 | 29.2% |
| O=S(=O)(NCCCn1cncn1)c1ccc2c(c1)CCCC2 | -5.74% |
| Cc1cc(C)n(CCN2CCC(N(C)Cc3noc(C4CC4)n3)C2)n1 (centres undefined) | -4.52% |

| Compound | cytotoxicity at 70.5 h |
| --- | --- |
| CCNC(=O)c1ccc(NC(=O)N(C)Cc2cc(C)on2)c(C)c1 | -5.12% |
| O=S(=O)(NCCCn1cncn1)c1ccc2c(c1)OCCCO2 | -6.28% |
| C1=C(CNC2CCc3ncnn3C2)COc2ccccc21 (centres undefined) | -9.66% |
| CC(C)c1nnc2n1CCN(Cc1cc(Cl)c3c(c1)OCO3)C2 | -1.27% |
| CCOCCN1CCN(CC(=O)NC2(C#N)CCCC2)CC1C (centres undefined) | 10.7% |
| Cc1nc(C(C)(C)NCc2ncc(C3CC3)o2)sc1C | 2.05% |
| CCN(CC)CCn1cc(NC(=O)CNc2ccccc2OC)cn1 | 7.01% |
| CNS(=O)(=O)c1cc(C(=O)NC2COc3ccccc3C2)ccc1OC (centres undefined) | 6.83% |
| CC(C)(NCc1ccc(C#N)cc1)c1ccc2c(c1)OCO2 | 12.3% |
| CC(C)c1ccc(OCCC(=O)NCCC(=O)N(C)C)cc1 | -8.34% |
| CC(C)c1ccc(OCCC(=O)N(C)CC(N)=O)cc1 | -12.9% |
| Cc1nc(-c2cc(C(=O)O)co2)cs1 | -9.39% |
| Cn1cnc2c1CCN(CC(=O)NC1CCCCNC1=O)C2 (centres undefined) | 15.2% |
| Cc1occc1C(=O)N1CCCN(Cc2ncc(Cl)n2C)CC1 | -7.84% |
| Cc1cnn(CC(C)NCc2cc(=O)n3cc(C)ccc3n2)c1 (centres undefined) | -6.57% |
| CC(NC(=O)NC1CCN(CC2CCCC2)CC1)c1nccs1 (centres undefined) | -6.39% |
| COCCN(C(=O)c1ccsc1)c1ccc(C#N)cc1 | -3.69% |
| Cc1nc(-c2cc(C(=O)NC(C)(C(=O)O)C(C)C)co2)cs1 (centres undefined) | -7.3% |
| CC(C)c1ccc(OCCC(=O)N(C)C)cc1 | 12.7% |
| O=C(NCCSC1CCCC1)c1cc(Cl)ccn1 | 22.7% |
| O=C(NCCSC1CCCC1)c1cnccn1 | 29.4% |
| CC1COCCN1C(=O)c1ccc(=O)n(CCOc2ccccc2)n1 (centres undefined) | -5.11% |
| COc1ccc(C2CCCN2c2ccc(C#N)cn2)c(OC)c1 (centres undefined) | 4.11% |
| CCC1CCCCN1C(=O)CCn1cnc2sccc2c1=O (centres undefined) | -11.1% |

| Compound | cytotoxicity at 70.5 h |
| --- | --- |
| CNC(=O)C1CCCCN1C(=O)CCn1cnc2sccc2c1=O (centres undefined) | -1.4% |
| COc1ccc(C2CCCN2c2cnccn2)c(OC)c1 (centres undefined) | -2.67% |
| Cc1nccn1-c1cc(CNS(=O)(=O)N2CCCC(C)C2)ccn1 (centres undefined) | 18% |
| O=C(NCC(F)(F)F)c1nnn(-c2ccccc2)c1C(F)(F)F | -4.56% |
| COC(=O)c1ccc(N2CCN(C(=O)C(C)C)C(C)C2)cc1 (centres undefined) | 26.6% |
| COc1ccc(N2CCC(NCc3csc(C(C)C)n3)CC2)cc1 | 4.75% |
| Cc1cc(NC(=O)NC(C)(C)c2nc(C)c(C)s2)no1 | -8.02% |
| CCCOCCOC(=O)c1ccc2c(c1)[nH]c(=O)n2C | 11.7% |
| NC(=O)CN1CCN(CC2CC2)c2ccccc21 | 13.1% |
| Cc1cc(NC(=O)CCNC(C)(C)c2nc(C)c(C)s2)no1 | -5.95% |
| O=C(NCc1nncn1C1CC1)C1(c2cccc(F)c2)CCOCC1 | -9.71% |
| O[C@@H]1Cc2ccccc2[C@@H]1Nc1ncccc1F | -9.59% |
| Cc1csc(CN(CC2CCCO2)C(=O)c2cccnc2C)n1 (centres undefined) | -6.56% |
| CCCn1nnnc1CSc1nccn1CC | -0.835% |
| Cc1cc(C(=O)NCC2CCCO2)c(C)n1-c1cccnc1 (centres undefined) | -10.8% |
| Cc1csc(CN(C)CCCOc2cccc(C#N)c2)n1 | 13.7% |
| Cc1cc(CN2CCN(CC(=O)NC3(C#N)CCCCC3)CC2)on1 | 2.07% |
| CC(c1ncc(C(C)(C)C)o1)N1CCN(Cc2ccco2)CC1 (centres undefined) | -5.45% |
| Cc1nc(CN[C@H]2CCCN(C(=O)OC(C)(C)C)C2)cs1 | -3.34% |
| CC1CCc2nc(NC(=O)CN(C)C(=O)c3ccco3)sc2C1 (centres undefined) | 28.3% |
| Cc1cc(NCCNc2ccc(C#N)cn2)nc(C)n1 | -6.84% |
| COCCOc1ccccc1NC(C)C(=O)NC(=O)NC(C)(C)C (centres undefined) | -15.9% |
| CCN(CC)c1nc2sc(C(=O)NCC(=O)OC)cc2s1 | 19.9% |
| O=S(=O)(Cc1ccccc1)NCC1CCCN(Cc2cccs2)C1 (centres undefined) | -0.373% |

| Compound | cytotoxicity at 70.5 h |
| --- | --- |
| Cc1csc(CCNc2ccc(C#N)cc2F)n1 | -10.7% |
| CS(=O)(=O)NCC1CCCCN1Cc1ccccc1C#N (centres undefined) | -10.5% |
| c1csc(-c2cc(CN3CCN(c4nccs4)CC3)no2)c1 | -10.2% |
| COC(=O)N1CCCC(NC(=O)NCc2nc(C)cs2)C1 (centres undefined) | -8.72% |
| Cc1cc(N2CCN(C(=O)c3cn(C)c4ccccc34)CC2)nc(C)n1 | 20.3% |
| COC(=O)N1CCCC(NC(=O)NCc2ccc(C)nc2)C1 (centres undefined) | -4.96% |
| Cc1noc(C(C)N2CCN(c3ncnc4sccc34)CC2)n1 (centres undefined) | -7.54% |
| CC(NC(=O)c1cc(N2CCNC2=O)ccc1F)c1ccc(F)cc1 (centres undefined) | -4.65% |
| Cc1csc(C2CCCCN2C(=O)c2cnn3ccc(C)nc23)n1 (centres undefined) | -18.6% |
| Cc1ccn2ncc(C(=O)N3CCCC(c4noc(C)n4)C3)c2n1 (centres undefined) | 14.9% |
| CN(C)c1ccccc1CN1CCCCC1CNS(C)(=O)=O (centres undefined) | -4.51% |
| COC(=O)N1CCCC(NC(=O)NCc2cccc(C)n2)C1 (centres undefined) | -6.49% |
| Cc1ccn2ncc(C(=O)N3CCCC(c4cc(C)[nH]n4)C3)c2n1 (centres undefined) | -7.17% |
| Cc1nn(C)c(C)c1C1CCCN1CCOc1ccccc1C#N (centres undefined) | 1.39% |
| O=C1CCCN1CCc1nc(-c2ccsc2)no1 | -14.2% |
| Cn1cc(C2CCCN2C(=O)COC2CCCCC2)cn1 (centres undefined) | -11.1% |
| COc1ccc2c(c1)CCCN2C(=O)CNCC1CN(C)CCO1 (centres undefined) | 12.1% |
| Cc1nn(C(C)(C)C)c(=O)n1CC(=O)NC(C)(C)C | 10.6% |
| COCC(C)NC(=O)c1cncc(Br)c1 (centres undefined) | -0.743% |
| Nc1cnn(CC(=O)N2CCCCC2)c1 | 3.95% |
| CC(C)(C)c1n[nH]cc1CNCC1CCN(CC(F)(F)F)C1 (centres undefined) | -6.93% |
| CC(C)(C)c1n[nH]cc1CNCC1CCN(C2CC2)C1 (centres undefined) | -6.24% |
| CC(NCc1ccc(OCC(N)=O)cc1)c1ccc(Cl)cc1 (centres undefined) | 15.5% |
